Laboratory results as given in patent publication US8106055B2, “Substituted amide compounds” (Gruenenthal GmbH, priority 2007, dated 2012).

molecular target: T1, bradykinin 1 receptor (B1R) of the rat (Rattus norvegicus, UniProt P97583); assay: Functional investigation on the rat bradykinin 1 receptor (B1R), Ca2+ FLIPR assay in CHO K1 rB1R cells; format: cell-based; conditions: CHO-K1, B1R antagonism rat; test substance 10 μM; Ca2+ FLIPR, CHO K1 rB1R cells; read-out: B1R Ant. r [10 μM] % Inhibition
T1 construct: expressed in transfected cells; host or cells: CHO K1 cells
T1 sequence (P97583 1-337): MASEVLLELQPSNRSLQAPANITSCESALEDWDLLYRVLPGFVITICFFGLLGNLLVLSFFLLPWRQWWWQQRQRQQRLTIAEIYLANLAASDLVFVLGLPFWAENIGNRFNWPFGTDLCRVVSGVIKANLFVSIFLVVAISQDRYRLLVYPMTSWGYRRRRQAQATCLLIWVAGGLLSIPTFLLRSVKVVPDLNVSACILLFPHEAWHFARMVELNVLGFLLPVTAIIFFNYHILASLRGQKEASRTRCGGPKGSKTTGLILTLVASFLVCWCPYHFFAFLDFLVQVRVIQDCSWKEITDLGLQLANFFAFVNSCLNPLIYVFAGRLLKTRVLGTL
Procedure, shortened: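 Stably transfected CHO K1 cells loaded with Fluo-4; FLIPR Ca2+ fluorescence peak (ex 488/em 540 nm). Compound added first (agonism vs Lys-Des-Arg9-bradykinin ≥50 nM human, Des-Arg9-bradykinin 10 μM rat), then after 10-20 min agonist at EC80; antagonism as % inhibition, IC50 from concentration series, n=2-3, N≥2.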

Structure (SMILES) | inhibition at 10 µM
CN(C)C(c1cccc(F)c1)C1CCC(NC(=O)COC2CCN(S(=O)(=O)c3cccc(C(F)(F)F)c3)C2)CC1 (stereo not drawn) [Example 139, N-(4-((dimethylamino)(3-fluorophenyl)methyl)cyclohexyl)-2-(1-(3-(trifluoromethyl)phenylsulfonyl)pyrrolidin-3-yloxy)acetamide] | 21%
Cc1cc(C)c(S(=O)(=O)N2CCC(OCC(=O)NC3CCC(C(c4cccc(F)c4)N(C)C)CC3)C2)c(C)c1 (stereo not drawn) [Example 140, N-(4-((dimethylamino)(3-fluorophenyl)methyl)cyclohexyl)-2-(1-(mesitylsulfonyl)pyrrolidin-3-yloxy)acetamide] | 30%
Cc1cc(C)c(S(=O)(=O)N2CCC(OCC(=O)NCC3CCC(C(c4cccc(F)c4)N(C)C)CC3)C2)c(C)c1 (stereo not drawn) [Example 141, N-((4-((dimethylamino)(3-fluorophenyl)methyl)cyclohexyl)methyl)-2-(1-(mesitylsulfonyl)pyrrolidin-3-yloxy)acetamide] | 26%
COc1ccc(S(=O)(=O)N(C)CCOCC(=O)NCC2CCC(C(c3cccs3)N(C)C)CC2)cc1 (stereo not drawn) [Example 142, N-((4-((dimethylamino)(thiophen-2-yl)methyl)cyclohexyl)methyl)-2-(2-(4-methoxy-N-methylphenylsulfonamido)ethoxy)acetamide] | 41%
COc1cc(C)c(S(=O)(=O)N2CCC(OCC(=O)NCC3CCC(C(c4ccccc4)N(C)C)CC3)CC2)c(C)c1C (stereo not drawn) [Example 143, N-((4-((dimethylamino)(phenyl)methyl)cyclohexyl)methyl)-2-(1-(4-methoxy-2,3,6-trimethylphenylsulfonyl)piperidin-4-yloxy)acetamide] | 19%
COc1cc(C)c(S(=O)(=O)N2CCCC(OCC(=O)NC3CCC(C(c4cccs4)N(C)C)CC3)C2)c(C)c1C (stereo not drawn) [Example 144, N-(4-((dimethylamino)(thiophen-2-yl)methyl)cyclohexyl)-2-(1-(4-methoxy-2,3,6-trimethylphenylsulfonyl)piperidin-3-yloxy)acetamide] | 4%
COc1cc(C)c(S(=O)(=O)N2CCCC(OCC(=O)NCC3CCC(C(c4cccc(F)c4)N(C)C)CC3)C2)c(C)c1C (stereo not drawn) [Example 145, N-((4-((dimethylamino)(3-fluorophenyl)methyl)cyclohexyl)methyl)-2-(1-(4-methoxy-2,3,6-trimethylphenylsulfonyl)piperidin-3-yloxy)acetamide] | 33%
COc1cc(C)c(S(=O)(=O)N2CCC(CCOCC(=O)NCC3CCC(C(c4ccccc4)N(C)C)CC3)CC2)c(C)c1C (stereo not drawn) [Example 146, N-((4-((dimethylamino)(phenyl)methyl)cyclohexyl)methyl)-2-(2-(1-(4-methoxy-2,3,6-trimethylphenylsulfonyl)piperidin-4-yl)ethoxy)acetamide] | 26%
CN(C)C(c1cccc(F)c1)C1CCC(CCNC(=O)COCC2CCCCN2S(=O)(=O)c2ccc(Cl)c(Cl)c2)CC1 (stereo not drawn) [Example 147, 2-((1-(3,4-dichlorophenylsulfonyl)piperidin-2-yl)methoxy)-N-(2-(4-((dimethylamino)(3-fluorophenyl)methyl)cyclohexyl)ethyl)acetamide] | 27%
COc1cc(C)c(S(=O)(=O)N(CCOCC(=O)NCC2CCC(C(c3ccccc3)N(C)C)CC2)Cc2ccccc2)c(C)c1 (stereo not drawn) [Example 148, 2-(2-(N-benzyl-4-methoxy-2,6-dimethylphenylsulfonamido)ethoxy)-N-((4-((dimethylamino)(phenyl)methyl)cyclohexyl)methyl)acetamide] | 46%
COc1cc(C)c(S(=O)(=O)N(CCOCC(=O)NCCC2CCC(C(c3cccs3)N(C)C)CC2)Cc2ccccc2)c(C)c1 (stereo not drawn) [Example 149, 2-(2-(N-benzyl-4-methoxy-2,6-dimethylphenylsulfonamido)ethoxy)-N-(2-(4-((dimethylamino) (thiophen-2-yl)methyl)cyclohexyl)ethyl)acetamide] | 10%
COc1ccc(S(=O)(=O)N2CCCCC2COCC(=O)NCC2CCC(C(c3ccccc3)N(C)C)CC2)cc1OC (stereo not drawn) [Example 150, 2-((1-(3,4-Dimethoxyphenylsulfonyl)piperidin-2-yl)methoxy)-N-((4-((dimethylamino)(phenyl)methyl)cyclohexyl)methyl)acetamide] | 10%
COc1ccc(S(=O)(=O)N2CCCCC2COCC(=O)NCC2CCC(C(c3cccc(F)c3)N(C)C)CC2)c(OC)c1 (stereo not drawn) [Example 151, 2-((1-(2,4-dimethoxyphenylsulfonyl)piperidin-2-yl)methoxy)-N-((4-((dimethylamino)(3-fluorophenyl)methyl)cyclohexyl)methyl)acetamide] | 23%
CN(C)C(c1cccs1)C1CCC(NC(=O)COCCN(C)S(=O)(=O)c2cccc(C(F)(F)F)c2)CC1 (stereo not drawn) [Example 152, N-(4-((dimethylamino)(thiophen-2-yl)methyl)cyclohexyl)-2-(2-(N-methyl-3-(trifluoromethyl)phenylsulfonamido)ethoxy)acetamide] | 4%
COc1ccc(S(=O)(=O)N2CCC(OCC(=O)NC3CCC(C(c4cccs4)N(C)C)CC3)C2)cc1OC (stereo not drawn) [Example 155, 2-(1-(3,4-dimethoxyphenylsulfonyl)pyrrolidin-3-yloxy)-N-(4-((dimethylamino)(thiophen-2-yl)methyl)cyclohexyl)acetamide] | 1%
Cc1ccc(S(=O)(=O)N2CCC(OCC(=O)NC3CCC(C(c4cccs4)N(C)C)CC3)C2)cc1 (stereo not drawn) [Example 156, N-(4-((dimethylamino)(thiophen-2-yl)methyl)cyclohexyl)-2-(1-tosylpyrrolidin-3-yloxy)acetamide] | 20%
Cc1ccc(S(=O)(=O)N(C)CCOCC(=O)NCC2CCC(C(c3ccccc3)N(C)C)CC2)cc1 (stereo not drawn) [Example 157, N-((4-((dimethylamino) (phenyl)methyl)cyclohexyl)methyl)-2-(2-(N,4-dimethylphenylsulfonamido)ethoxy)acetamide] | -1%
CN(C)C(c1cccc(F)c1)C1CCC(CNC(=O)COCCN(C)S(=O)(=O)c2ccc(Cl)cc2)CC1 (stereo not drawn) [Example 158, 2-(2-(4-chloro-N-methylphenylsulfonamido)ethoxy)-N-((4-((dimethylamino)(3-fluorophenyl)methyl)cyclohexyl)methyl)acetamide] | 5%
CN(C)C(c1cccs1)C1CCC(NC(=O)COCCN(Cc2ccccc2)S(=O)(=O)c2ccccc2)CC1 (stereo not drawn) [Example 161, 2-(2-(N-benzylphenylsulfonamido)ethoxy)-N-(4-((dimethylamino)(thiophen-2-yl)methyl)cyclohexyl)acetamide] | 3%
COc1ccc(S(=O)(=O)N2CCCC2COCC(=O)NC2CCC(C(c3cccs3)N(C)C)CC2)cc1 (stereo not drawn) [Example 162, N-(4-((dimethylamino)(thiophen-2-yl)methyl)cyclohexyl)-2-((1-(4-methoxyphenylsulfonyl)pyrrolidin-2-yl)methoxy)acetamide] | 21%
COc1ccc(S(=O)(=O)N2Cc3ccccc3CC2COCC(=O)NCC2CCC(C(c3cccc(F)c3)N(C)C)CC2)cc1 (stereo not drawn) [Example 163, N-((4-((dimethylamino)(3-fluorophenyl)methyl)cyclohexyl)methyl)-2-((2-(4-methoxyphenylsulfonyl)-1,2,3,4-tetrahydroisoquinolin-3-yl)methoxy)acetamide] | 36%
